Measurements reported in patent publication US8273769B2, “Phenoxy acetic acid derivatives” (Merck Serono SA, priority 2009, dated 2012).

Experiments:
CRTH2 = biological target: T1, CRTH2 (Homo sapiens, UniProt Q9Y5Y4); assay: Radioligand binding Scintillation Proximity Assay ([3H]PGD2, hCRTH2-CHO cell membranes); parameters: host or cells: CHO cells; conditions: 1.5 nM [3H]PGD2, hCRTH2-CHO cell membranes, SPA
T1 sequence (Q9Y5Y4 1-395): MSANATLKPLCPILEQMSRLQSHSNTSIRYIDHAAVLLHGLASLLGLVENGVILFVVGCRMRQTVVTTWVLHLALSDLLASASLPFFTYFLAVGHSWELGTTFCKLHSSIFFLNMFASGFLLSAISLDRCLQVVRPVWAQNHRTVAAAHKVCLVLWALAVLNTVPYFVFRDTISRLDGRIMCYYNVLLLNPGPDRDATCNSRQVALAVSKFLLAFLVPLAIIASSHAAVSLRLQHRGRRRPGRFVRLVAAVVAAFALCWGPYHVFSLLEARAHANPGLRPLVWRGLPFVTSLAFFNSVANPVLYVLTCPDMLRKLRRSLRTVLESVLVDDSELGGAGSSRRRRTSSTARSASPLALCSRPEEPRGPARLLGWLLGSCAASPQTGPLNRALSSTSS
Summary of the method: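 SPA competition binding at room temperature, 90 min with agitation: 1.5 nM [3H]PGD2, 10-50 μg/ml hCRTH2-CHO membrane protein, WGA SPA beads, HEPES pH 7.4 with 10 mM MnCl2, 1% DMSO. Non-specific binding defined with 10 μM PGD2; scintillation counting.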

For `CCS(=O)(=O)c1ccc(F)c(C#Cc2cc(Cl)ccc2OCC(=O)O)c1` [Example 104, (4-chloro-2-{[5-(ethylsulfonyl)-2-fluorophenyl]ethynyl}phenoxy)acetic acid], the IC50 (CRTH2) was 3 nM and the melting point was 165 to 169 °C.

Work on `CC(C)CS(=O)(=O)c1ccc(F)c(C#Cc2cc(Cl)ccc2OCC(=O)O)c1` [Example 105, (4-chloro-2-{[2-fluoro-5-(isobutylsulfonyl)phenyl]ethynyl}phenoxy)acetic acid] yielded an IC50 (CRTH2) of 2 nM and a melting point of 141 to 143 °C.

With `COCCS(=O)(=O)c1ccc(F)c(C#Cc2cc(Cl)ccc2OCC(=O)O)c1` [Example 106, [4-chloro-2-({2-fluoro-5-[(2-methoxyethyl)sulfonyl]phenyl}ethynyl)phenoxy]acetic acid] the IC50 (CRTH2) was 2 nM and the melting point was 125 to 128 °C.

In the case of `COC1(C)c2ccc(C#Cc3cc(Cl)ccc3OCC(=O)O)cc2S(=O)(=O)C1(C)C` (centres unmarked) [Example 162, {4-chloro-2-[(3-methoxy-2,2,3-trimethyl-1,1-dioxido-2,3-dihydro-1-benzothien-6-yl)ethynyl]phenoxy}acetic acid], the IC50 (CRTH2) is reported as 29 nM and the melting point is reported as 80 to 95 °C.
